Active and inactive are the calls of the source. The calls are words filed in the database; no cut-off is given here.
Legend:
Providencia stuartii [1] = assay: Potentiation of meropenem-induced antibacterial activity against VIM1 carbapenemase producing multidrug-resistant Providencia stuartii 67 clinical isolate at 1:8 meropenem:compound ratio by checkerboard method; format: functional
Pseudomonas aeruginosa [2] = assay: Potentiation of meropenem-induced antibacterial activity against VIM2 carbapenemase producing multidrug-resistant Pseudomonas aeruginosa 11 clinical isolate at 1:8 meropenem:compound ratio by checkerboard method; format: functional
Pseudomonas aeruginosa [3] = assay: Potentiation of meropenem-induced antibacterial activity against VIM2 carbapenemase producing multidrug-resistant Pseudomonas aeruginosa GR58 clinical isolate at 1:8 meropenem:compound ratio by checkerboard method; format: functional
[4] = Inhibition of beta-lactamase VIM-2 (unknown origin)
Pseudomonas aeruginosa [5] = assay: Potentiation of meropenem-induced antibacterial activity against VIM2 carbapenemase producing multidrug-resistant Pseudomonas aeruginosa GR57 clinical isolate at 1:8 meropenem:compound ratio by checkerboard method; format: functional
Pseudomonas aeruginosa [6] = assay: Potentiation of meropenem-induced antibacterial activity against VIM2 carbapenemase producing multidrug-resistant Pseudomonas aeruginosa 47 clinical isolate at 1:8 meropenem:compound ratio by checkerboard method; format: functional
Pseudomonas aeruginosa [7] = assay: Potentiation of meropenem-induced antibacterial activity against VIM2 carbapenemase producing multidrug-resistant Pseudomonas aeruginosa 15 clinical isolate at 1:8 meropenem:compound ratio by checkerboard method; format: functional
Pseudomonas aeruginosa [8] = assay: Potentiation of meropenem-induced antibacterial activity against VIM2 carbapenemase producing multidrug-resistant Pseudomonas aeruginosa 9 clinical isolate assessed as MIC of meropenem at 1:8 meropenem:compound ratio by broth microtiter dilution method; format: functional
Pseudomonas aeruginosa [9] = assay: Potentiation of meropenem-induced antibacterial activity against VIM2 carbapenemase producing multidrug-resistant Pseudomonas aeruginosa 30 clinical isolate at 1:8 meropenem:compound ratio by checkerboard method; format: functional
Klebsiella pneumoniae [10] = assay: Potentiation of meropenem-induced antibacterial activity against VIM4 carbapenemase producing multidrug-resistant Klebsiella pneumoniae 196 clinical isolate at 1:8 meropenem:compound ratio by checkerboard method; format: functional
Pseudomonas aeruginosa [11] = assay: Antibacterial activity against VIM2 carbapenemase producing multidrug-resistant Pseudomonas aeruginosa 11 clinical isolate up to 512 mg/L by broth microtiter dilution method; format: functional, organism-based
Enterobacter cloacae [12] = assay: Antibacterial activity against VIM4 carbapenemase producing multidrug-resistant Enterobacter cloacae 102 clinical isolate up to 512 mg/L by broth microtiter dilution method; format: functional, organism-based
Pseudomonas aeruginosa [13] = assay: Potentiation of meropenem-induced antibacterial activity against VIM2 carbapenemase producing multidrug-resistant Pseudomonas aeruginosa 12 clinical isolate at 1:8 meropenem:compound ratio by checkerboard method; format: functional
Providencia stuartii [14] = assay: Potentiation of meropenem-induced antibacterial activity against VIM1 carbapenemase producing multidrug-resistant Providencia stuartii 67 clinical isolate assessed as MIC of meropenem at 1:8 meropenem:compound ratio by broth microtiter dilution method; format: functional
Klebsiella pneumoniae [15] = assay: Antibacterial activity against VIM4 carbapenemase producing multidrug-resistant Klebsiella pneumoniae 196 clinical isolate up to 512 mg/L by broth microtiter dilution method; format: functional, organism-based
Pseudomonas aeruginosa [16] = assay: Potentiation of meropenem-induced antibacterial activity against VIM2 carbapenemase producing multidrug-resistant Pseudomonas aeruginosa 27 clinical isolate at 1:8 meropenem:compound ratio by checkerboard method; format: functional
Klebsiella oxytoca = assay: Potentiation of meropenem-induced antibacterial activity against VIM4 carbapenemase producing multidrug-resistant Klebsiella oxytoca 95 clinical isolate assessed as MIC of meropenem at 1:8 meropenem:compound ratio by broth microtiter dilution method; format: functional
Pseudomonas aeruginosa [17] = assay: Antibacterial activity against VIM2 carbapenemase producing multidrug-resistant Pseudomonas aeruginosa GR57 clinical isolate up to 512 mg/L by broth microtiter dilution method; format: functional, organism-based
[18] = Toxicity in Galleria mellonella larvae assessed as survival rate up to 80 mg/kg measured at 96 hrs; format: organism-based; details: in vivo
Pseudomonas aeruginosa [19] = assay: Potentiation of meropenem-induced antibacterial activity against VIM2 carbapenemase producing multidrug-resistant Pseudomonas aeruginosa 3 clinical isolate assessed as MIC of meropenem at 1:8 meropenem:compound ratio by broth microtiter dilution method; format: functional
Pseudomonas aeruginosa [20] = assay: Potentiation of meropenem-induced antibacterial activity against VIM2 carbapenemase producing multidrug-resistant Pseudomonas aeruginosa 14 clinical isolate assessed as MIC of meropenem at 1:8 meropenem:compound ratio by broth microtiter dilution method; format: functional
Pseudomonas aeruginosa [21] = assay: Potentiation of meropenem-induced antibacterial activity against VIM2 carbapenemase producing multidrug-resistant Pseudomonas aeruginosa 16 clinical isolate at 1:8 meropenem:compound ratio by checkerboard method; format: functional
Enterobacter cloacae [22] = assay: Potentiation of meropenem-induced antibacterial activity against VIM4 carbapenemase producing multidrug-resistant Enterobacter cloacae 102 clinical isolate at 1:8 meropenem:compound ratio by checkerboard method; format: functional
Pseudomonas aeruginosa [23] = assay: Antibacterial activity against VIM2 carbapenemase producing multidrug-resistant Pseudomonas aeruginosa 6 clinical isolate up to 512 mg/L by broth microtiter dilution method; format: functional, organism-based
Pseudomonas aeruginosa [24] = assay: Antibacterial activity against VIM2 carbapenemase producing multidrug-resistant Pseudomonas aeruginosa GR62 clinical isolate up to 512 mg/L by broth microtiter dilution method; format: functional, organism-based
Pseudomonas aeruginosa [25] = assay: Potentiation of meropenem-induced antibacterial activity against VIM2 carbapenemase producing multidrug-resistant Pseudomonas aeruginosa 16 clinical isolate assessed as MIC of meropenem at 1:8 meropenem:compound ratio by broth microtiter dilution method; format: functional
Klebsiella pneumoniae [26] = assay: Potentiation of meropenem-induced antibacterial activity against VIM4 carbapenemase producing multidrug-resistant Klebsiella pneumoniae 128 clinical isolate at 1:8 meropenem:compound ratio by checkerboard method; format: functional
Klebsiella pneumoniae [27] = assay: Potentiation of meropenem-induced antibacterial activity against VIM4 carbapenemase producing multidrug-resistant Klebsiella pneumoniae 128 clinical isolate assessed as MIC of meropenem at 1:8 meropenem:compound ratio by broth microtiter dilution method; format: functional
Pseudomonas aeruginosa [28] = assay: Potentiation of meropenem-induced antibacterial activity against VIM2 carbapenemase producing multidrug-resistant Pseudomonas aeruginosa GR64 clinical isolate assessed as MIC of meropenem at 1:8 meropenem:compound ratio by broth microtiter dilution method; format: functional
Pseudomonas aeruginosa [29] = assay: Antibacterial activity against VIM2 carbapenemase producing multidrug-resistant Pseudomonas aeruginosa 14 clinical isolate up to 512 mg/L by broth microtiter dilution method; format: functional, organism-based
Pseudomonas aeruginosa [30] = assay: Potentiation of meropenem-induced antibacterial activity against VIM2 carbapenemase producing multidrug-resistant Pseudomonas aeruginosa 15 clinical isolate assessed as MIC of meropenem at 1:8 meropenem:compound ratio by broth microtiter dilution method; format: functional

## O=C(O)/C(S)=C/c1c(Cl)ccc(Cl)c1Cl
Providencia stuartii [1]
  fractional inhibitory concentration index (FICI): 0.14
Pseudomonas aeruginosa [2]
  fractional inhibitory concentration index (FICI): 0.09
Pseudomonas aeruginosa [3]
  fractional inhibitory concentration index (FICI): 0.38
[4]
  IC50: 0.3 µM
Pseudomonas aeruginosa [5]
  fractional inhibitory concentration index (FICI): 0.19
Pseudomonas aeruginosa [6]
  fractional inhibitory concentration index (FICI): 0.05
Pseudomonas aeruginosa [7]
  fractional inhibitory concentration index (FICI): 0.5
Pseudomonas aeruginosa [8]
  MIC: 16 µg/mL
Pseudomonas aeruginosa [9]
  fractional inhibitory concentration index (FICI): 0.25
Klebsiella pneumoniae [10]
  fractional inhibitory concentration index (FICI): 0.08
Pseudomonas aeruginosa [11]
  Activity: inactive
Enterobacter cloacae [12]
  Activity: inactive
Pseudomonas aeruginosa [13]
  fractional inhibitory concentration index (FICI): 0.75
Providencia stuartii [14]
  MIC: 1 µg/mL
Klebsiella pneumoniae [15]
  Activity: inactive
Pseudomonas aeruginosa [16]
  fractional inhibitory concentration index (FICI): 0.5
Klebsiella oxytoca
  MIC: 8 µg/mL
Pseudomonas aeruginosa [17]
  Activity: inactive
[18]
  survival at 96 h: 100%
Pseudomonas aeruginosa [19]
  MIC: 8 µg/mL
Pseudomonas aeruginosa [20]
  MIC: 2 µg/mL
Pseudomonas aeruginosa [21]
  fractional inhibitory concentration index (FICI): 0.5
Enterobacter cloacae [22]
  fractional inhibitory concentration index (FICI): 0.19
Pseudomonas aeruginosa [23]
  Activity: inactive
Pseudomonas aeruginosa [24]
  Activity: inactive
Pseudomonas aeruginosa [25]
  MIC: 16 µg/mL
Klebsiella pneumoniae [26]
  fractional inhibitory concentration index (FICI): 0.27
Klebsiella pneumoniae [27]
  MIC: 1 µg/mL
Pseudomonas aeruginosa [28]
  MIC: 4 µg/mL
Pseudomonas aeruginosa [29]
  Activity: inactive
Pseudomonas aeruginosa [30]
  MIC: 16 µg/mL
